Patent US20080009418A1, “Selective Inhibitors” (Alchemia LTD., priority 2004, published 2008)

What was measured:
Settings in all cases: compound at 10 μM
[1] = target: T1, Mouse urotensin (mUR2) (Mus musculus, UniProt Q8VIH9); assay: Radioligand binding, mouse urotensin mUR2 membranes, FlashPlate, [125I]-Urotensin II
T1 construct: purchased Perkin Elmer Biosignal
T1 sequence (Q8VIH9 1-385): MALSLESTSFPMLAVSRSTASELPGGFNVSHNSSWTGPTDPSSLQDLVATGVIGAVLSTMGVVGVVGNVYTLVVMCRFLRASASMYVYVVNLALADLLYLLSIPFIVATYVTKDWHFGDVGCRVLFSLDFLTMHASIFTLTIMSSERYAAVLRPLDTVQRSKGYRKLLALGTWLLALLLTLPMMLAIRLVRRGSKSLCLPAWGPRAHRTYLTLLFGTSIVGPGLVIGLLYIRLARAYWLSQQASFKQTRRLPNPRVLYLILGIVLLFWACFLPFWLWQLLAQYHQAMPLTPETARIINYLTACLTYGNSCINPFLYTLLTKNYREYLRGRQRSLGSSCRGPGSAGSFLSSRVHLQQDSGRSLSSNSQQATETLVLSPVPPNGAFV
Method in brief: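 Cloned mouse urotensin (mUR2) receptor membranes from Perkin Elmer Biosignal were immobilized in FlashPlate microplates using a proprietary coating. Each well got 19.5 μl buffer, then 0.5 μl of DMSO, reference ligand, or compound. Adding 5 μl of [125I]-Urotensin II, diluted to 5× final concentration in binding buffer, started binding. Plates were sealed with TopSeal-A and incubated 1 hour at room temperature in the dark. Wells were counted for 30 seconds each on a TopCount after a 60-second delay, and percentage inhibition was calculated.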

[2] = target: T2, Human melanocortin (MC5) (Homo sapiens, UniProt P33032); assay: Radioligand binding, human melanocortin MC5 membranes, FlashPlate, [125I]-NDP-αMSH
T2 construct: purchased Perkin Elmer Biosignal
Method in brief: (§1)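 Cloned human receptor membranes were coated onto FlashPlate wells and incubated with radioligand and compound (added from a 0.5 mM DMSO daughter plate) for 1 hour at room temperature in the dark. Scintillation counting gave percent inhibition, with DMSO defining total and reference ligand defining non-specific binding.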

[3] = target: T3, Human neurokinin (NK1) (Homo sapiens, UniProt P25103); assay: Radioligand binding, human neurokinin NK1 membranes, filtration, [125I]-Substance P
T3 construct: purchased Perkin Elmer Biosignal
Method in brief: (§2)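 Filtration binding on cloned human receptor membranes (1 Unit/well), [125I]-Substance P for NK1 and [3H]-Diprenorphine for KOP, 1 h at room temperature. Filters PEI-presoaked, washed with cold 50 mM Tris-HCl pH 7.4, counted by scintillation; percent inhibition calculated, reference ligand defining non-specific binding.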

[4] = target: T4, Human neuropeptide Y (NPY-Y1) (Homo sapiens, UniProt P25929); assay: Radioligand binding, human neuropeptide Y NPY-Y1 membranes, FlashPlate, [125I]-PYY
T4 construct: purchased Perkin Elmer Biosignal
T4 sequence (P25929 1-384): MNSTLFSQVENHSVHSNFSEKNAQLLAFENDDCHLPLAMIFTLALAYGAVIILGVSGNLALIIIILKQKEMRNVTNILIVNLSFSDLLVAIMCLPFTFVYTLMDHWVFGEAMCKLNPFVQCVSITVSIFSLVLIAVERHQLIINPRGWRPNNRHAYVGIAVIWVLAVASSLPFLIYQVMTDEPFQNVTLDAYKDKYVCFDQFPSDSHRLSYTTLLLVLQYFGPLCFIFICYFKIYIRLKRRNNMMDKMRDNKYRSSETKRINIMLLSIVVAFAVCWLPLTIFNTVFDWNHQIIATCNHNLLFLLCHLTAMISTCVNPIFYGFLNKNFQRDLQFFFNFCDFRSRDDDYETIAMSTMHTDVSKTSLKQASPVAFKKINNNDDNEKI
Method in brief: as §1

[5] = target: T5, Human opioid (ORL1) (Homo sapiens, UniProt P41146); assay: Radioligand binding, human opioid ORL1 membranes, FlashPlate, [125I]-Nociceptin
T5 construct: purchased Perkin Elmer Biosignal
Method in brief: as §1

[6] = target: T6, Human melanin-concentrating hormone (MCH1) (Homo sapiens, UniProt Q99705); assay: Radioligand binding, human melanin-concentrating hormone MCH1 membranes, FlashPlate, [125I]-S36057
T6 construct: purchased Perkin Elmer Biosignal
Method in brief: as §1

[7] = target: T7, Human μ-opioid (MOP) (Homo sapiens, UniProt P35372); assay: Radioligand binding, human μ-opioid (MOP) membranes, FlashPlate, [3H]-Naloxone
T7 construct: purchased Perkin Elmer Biosignal
Method in brief: as §1

[8] = target: T8, Human δ-opioid (DOP) (Homo sapiens, UniProt P41143); assay: Radioligand binding, human δ-opioid (DOP) membranes, FlashPlate, [3H]-Bremazocine
T8 construct: purchased Perkin Elmer Biosignal
Method in brief: as §1

[9] = target: T9, Human κ-Opioid (KOP) (Homo sapiens, UniProt P41145); assay: Radioligand binding, human κ-opioid (KOP) membranes, filtration, [3H]-Diprenorphine
T9 construct: purchased Perkin Elmer Biosignal
Method in brief: as §2

[10] = target: T10, Human Melanocortin (MC3) (Homo sapiens, UniProt P41968); assay: Radioligand binding, human melanocortin MC3 membranes, FlashPlate, [125I]-NDP-αMSH
T10 construct: purchased Perkin Elmer Biosignal
Method in brief: as §1

[11] = target: T11, Human Melanocortin (MC4) (Homo sapiens, UniProt P32245); assay: Radioligand binding, human melanocortin MC4 membranes, FlashPlate, [125I]-NDP-αMSH
T11 construct: purchased Perkin Elmer Biosignal
Method in brief: as §1

T2 sequence (P33032 whole entry): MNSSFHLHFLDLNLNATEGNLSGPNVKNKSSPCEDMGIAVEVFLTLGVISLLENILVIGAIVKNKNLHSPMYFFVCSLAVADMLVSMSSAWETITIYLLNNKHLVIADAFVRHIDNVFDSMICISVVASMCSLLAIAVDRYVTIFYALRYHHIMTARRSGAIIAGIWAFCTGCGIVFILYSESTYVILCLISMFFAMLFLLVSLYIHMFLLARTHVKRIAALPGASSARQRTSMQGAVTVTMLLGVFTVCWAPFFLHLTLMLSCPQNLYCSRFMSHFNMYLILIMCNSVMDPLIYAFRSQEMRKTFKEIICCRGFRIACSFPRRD
T3 sequence (P25103 whole entry): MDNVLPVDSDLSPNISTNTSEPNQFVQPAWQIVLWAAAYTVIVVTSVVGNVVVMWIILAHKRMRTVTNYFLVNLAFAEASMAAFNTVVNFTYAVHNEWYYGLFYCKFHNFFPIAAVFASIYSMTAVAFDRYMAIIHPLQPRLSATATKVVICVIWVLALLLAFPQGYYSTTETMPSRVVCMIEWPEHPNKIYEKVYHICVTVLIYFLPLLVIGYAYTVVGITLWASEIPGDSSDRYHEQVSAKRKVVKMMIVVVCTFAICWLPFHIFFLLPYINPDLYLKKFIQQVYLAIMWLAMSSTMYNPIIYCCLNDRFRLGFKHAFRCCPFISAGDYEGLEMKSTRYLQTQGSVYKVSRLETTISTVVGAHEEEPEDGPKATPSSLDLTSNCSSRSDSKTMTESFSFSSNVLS
T8 sequence (P41143 whole entry): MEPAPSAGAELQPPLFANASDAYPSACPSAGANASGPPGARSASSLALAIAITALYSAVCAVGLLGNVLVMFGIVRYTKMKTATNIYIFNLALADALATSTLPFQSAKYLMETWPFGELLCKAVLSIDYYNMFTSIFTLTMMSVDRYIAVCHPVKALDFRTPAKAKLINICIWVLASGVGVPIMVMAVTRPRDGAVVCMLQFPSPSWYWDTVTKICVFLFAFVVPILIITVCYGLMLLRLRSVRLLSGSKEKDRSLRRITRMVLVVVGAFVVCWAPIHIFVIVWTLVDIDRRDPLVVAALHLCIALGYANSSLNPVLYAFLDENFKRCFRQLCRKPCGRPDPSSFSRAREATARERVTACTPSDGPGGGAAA
T9 sequence (P41145 whole entry): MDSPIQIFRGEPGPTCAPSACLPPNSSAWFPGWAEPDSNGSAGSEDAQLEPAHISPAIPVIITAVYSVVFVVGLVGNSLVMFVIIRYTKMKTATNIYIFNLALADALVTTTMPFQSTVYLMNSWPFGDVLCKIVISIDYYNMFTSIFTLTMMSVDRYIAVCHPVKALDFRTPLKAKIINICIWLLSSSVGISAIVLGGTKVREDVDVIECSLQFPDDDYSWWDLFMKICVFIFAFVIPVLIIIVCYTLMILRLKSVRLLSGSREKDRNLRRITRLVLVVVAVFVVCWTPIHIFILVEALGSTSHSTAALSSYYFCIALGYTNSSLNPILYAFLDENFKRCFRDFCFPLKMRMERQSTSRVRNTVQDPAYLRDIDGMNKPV
T5 sequence (P41146 whole entry): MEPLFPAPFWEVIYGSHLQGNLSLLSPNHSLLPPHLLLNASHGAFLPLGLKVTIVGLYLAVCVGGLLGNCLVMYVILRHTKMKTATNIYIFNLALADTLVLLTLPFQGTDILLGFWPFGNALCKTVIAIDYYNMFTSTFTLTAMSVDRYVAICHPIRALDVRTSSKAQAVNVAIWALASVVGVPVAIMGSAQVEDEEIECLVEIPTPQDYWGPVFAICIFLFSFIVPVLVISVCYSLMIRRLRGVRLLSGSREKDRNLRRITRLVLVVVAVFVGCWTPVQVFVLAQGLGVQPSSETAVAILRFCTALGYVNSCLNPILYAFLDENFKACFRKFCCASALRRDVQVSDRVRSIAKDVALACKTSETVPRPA
T11 sequence (P32245 whole entry): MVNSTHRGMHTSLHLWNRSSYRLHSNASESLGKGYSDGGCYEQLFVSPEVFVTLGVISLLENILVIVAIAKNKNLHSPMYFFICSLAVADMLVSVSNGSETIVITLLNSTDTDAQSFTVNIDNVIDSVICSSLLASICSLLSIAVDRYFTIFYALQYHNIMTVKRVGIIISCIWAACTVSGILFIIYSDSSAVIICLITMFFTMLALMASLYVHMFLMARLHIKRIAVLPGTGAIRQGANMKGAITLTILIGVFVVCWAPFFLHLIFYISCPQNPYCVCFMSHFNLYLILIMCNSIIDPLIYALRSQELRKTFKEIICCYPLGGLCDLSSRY
T7 sequence (P35372 whole entry): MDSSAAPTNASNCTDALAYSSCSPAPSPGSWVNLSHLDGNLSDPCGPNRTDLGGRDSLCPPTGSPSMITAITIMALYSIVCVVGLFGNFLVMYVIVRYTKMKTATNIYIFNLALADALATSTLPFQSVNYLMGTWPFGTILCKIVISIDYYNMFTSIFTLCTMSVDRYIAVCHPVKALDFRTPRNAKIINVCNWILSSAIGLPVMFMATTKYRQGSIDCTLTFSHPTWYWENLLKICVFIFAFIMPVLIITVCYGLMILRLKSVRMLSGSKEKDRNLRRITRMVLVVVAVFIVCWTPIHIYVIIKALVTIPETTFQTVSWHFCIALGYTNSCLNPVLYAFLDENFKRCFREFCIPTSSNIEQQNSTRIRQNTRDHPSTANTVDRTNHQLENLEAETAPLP
T6 sequence (Q99705 whole entry): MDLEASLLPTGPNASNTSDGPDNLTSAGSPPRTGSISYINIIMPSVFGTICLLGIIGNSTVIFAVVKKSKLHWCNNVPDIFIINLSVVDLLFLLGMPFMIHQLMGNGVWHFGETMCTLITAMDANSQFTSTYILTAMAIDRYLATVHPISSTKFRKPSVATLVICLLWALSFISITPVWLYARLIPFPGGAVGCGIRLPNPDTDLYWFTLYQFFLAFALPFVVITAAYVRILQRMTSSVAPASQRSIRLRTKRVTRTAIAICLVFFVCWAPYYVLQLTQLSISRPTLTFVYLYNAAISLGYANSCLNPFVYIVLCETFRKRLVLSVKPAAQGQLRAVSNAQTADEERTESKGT
T10 sequence (P41968 whole entry): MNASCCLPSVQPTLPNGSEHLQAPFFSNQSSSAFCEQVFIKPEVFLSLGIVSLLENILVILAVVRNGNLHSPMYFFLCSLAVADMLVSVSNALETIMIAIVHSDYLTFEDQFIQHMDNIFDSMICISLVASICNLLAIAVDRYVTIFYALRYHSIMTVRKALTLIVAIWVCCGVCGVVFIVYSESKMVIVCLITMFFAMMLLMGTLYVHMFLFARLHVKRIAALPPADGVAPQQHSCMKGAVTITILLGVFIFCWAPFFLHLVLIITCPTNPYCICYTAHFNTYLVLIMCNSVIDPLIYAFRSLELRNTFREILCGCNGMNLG

CO[C@H]1[C@H](O)[C@@H](COCc2ccc(-c3ccccc3)cc2)OC(OCc2ccccc2)[C@@H]1NC(=O)CCNC(=N)N (stereo partly drawn) [compound 83]
A11 radioligand binding inhibition ([1]; mouse urotensin mUR2 membranes): − (“−” indicates less than 50% inhibition at 10 μM)
A5 radioligand binding inhibition ([2]; human melanocortin MC5 membranes): + (“+” indicates greater than 50% inhibition at 10 μM)
A8 radioligand binding inhibition ([3]; human neurokinin NK1 membranes): + (“+” indicates greater than 50% inhibition at 10 μM)
A9 radioligand binding inhibition ([4]; human NPY-Y1 membranes): − (“−” indicates less than 50% inhibition at 10 μM)
A10 radioligand binding inhibition ([5]; human ORL1 membranes): − (“−” indicates less than 50% inhibition at 10 μM)
A6 radioligand binding inhibition ([6]; human MCH1 membranes): − (“−” indicates less than 50% inhibition at 10 μM)
A7 radioligand binding inhibition ([7]; human μ-opioid (MOP) membranes): + (“+” indicates greater than 50% inhibition at 10 μM)
A1 radioligand binding inhibition ([8]; human δ-opioid (DOP) membranes): − (“−” indicates less than 50% inhibition at 10 μM)
A2 radioligand binding inhibition ([9]; human κ-opioid (KOP) membranes): − (“−” indicates less than 50% inhibition at 10 μM)
A3 radioligand binding inhibition ([10]; human melanocortin MC3 membranes): − (“−” indicates less than 50% inhibition at 10 μM)
A4 radioligand binding inhibition ([11]; human melanocortin MC4 membranes): − (“−” indicates less than 50% inhibition at 10 μM)

CSC1OC(COCc2cccc(N)c2)C(O)C(OCc2ccccc2)C1NC(=O)c1c[nH]c2ccccc12 (stereo not drawn) [compound 331]
A11: inhibition of radioligand binding, mouse urotensin (mUR2) ([1]; [125I]-Urotensin II): − (“−” indicates less than 50% inhibition at 10 μM)
A5: inhibition of radioligand binding, human melanocortin (MC5) ([2]; [125I]-NDP-αMSH): − (“−” indicates less than 50% inhibition at 10 μM)
A8: inhibition of radioligand binding, human neurokinin (NK1) ([3]; [125I]-Substance P): + (“+” indicates greater than 50% inhibition at 10 μM)
A9: inhibition of radioligand binding, human neuropeptide Y (NPY-Y1) ([4]; [125I]-PYY): − (“−” indicates less than 50% inhibition at 10 μM)
A10: inhibition of radioligand binding, human opioid (ORL1) ([5]; [125I]-Nociceptin): − (“−” indicates less than 50% inhibition at 10 μM)
A6: inhibition of radioligand binding, human melanin-concentrating hormone (MCH1) ([6]; [125I]-S36057): − (“−” indicates less than 50% inhibition at 10 μM)
A7: inhibition of radioligand binding, human μ-opioid (MOP) ([7]; [3H]-Naloxone): − (“−” indicates less than 50% inhibition at 10 μM)
A1: inhibition of radioligand binding, human δ-opioid (DOP) ([8]; [3H]-Bremazocine): − (“−” indicates less than 50% inhibition at 10 μM)
A2: inhibition of radioligand binding, human κ-opioid (KOP) ([9]; [3H]-Diprenorphine): − (“−” indicates less than 50% inhibition at 10 μM)
A3: inhibition of radioligand binding, human melanocortin (MC3) ([10]; [125I]-NDP-αMSH): − (“−” indicates less than 50% inhibition at 10 μM)
A4: inhibition of radioligand binding, human melanocortin (MC4) ([11]; [125I]-NDP-αMSH): − (“−” indicates less than 50% inhibition at 10 μM)

COCC1OC(OCc2ccccc2)C(NC(=O)CN)C(OCc2ccc(Cl)cc2)C1O (stereo not drawn) [compound 176]
A11 radioligand binding, percentage inhibition ([1]; [125I]-Urotensin II): − (“−” indicates less than 50% inhibition at 10 μM)
A5 radioligand binding, percentage inhibition ([2]; [125I]-NDP-αMSH): − (“−” indicates less than 50% inhibition at 10 μM)
A8 radioligand binding, percentage inhibition ([3]; [125I]-Substance P): + (“+” indicates greater than 50% inhibition at 10 μM)
A9 radioligand binding, percentage inhibition ([4]; [125I]-PYY): − (“−” indicates less than 50% inhibition at 10 μM)
A10 radioligand binding, percentage inhibition ([5]; [125I]-Nociceptin): − (“−” indicates less than 50% inhibition at 10 μM)
A6 radioligand binding, percentage inhibition ([6]; [125I]-S36057): − (“−” indicates less than 50% inhibition at 10 μM)
A7 radioligand binding, percentage inhibition ([7]; [3H]-Naloxone): − (“−” indicates less than 50% inhibition at 10 μM)
A1 radioligand binding, percentage inhibition ([8]; [3H]-Bremazocine): − (“−” indicates less than 50% inhibition at 10 μM)
A2 radioligand binding, percentage inhibition ([9]; [3H]-Diprenorphine): − (“−” indicates less than 50% inhibition at 10 μM)
A3 radioligand binding, percentage inhibition ([10]; [125I]-NDP-αMSH): − (“−” indicates less than 50% inhibition at 10 μM)
A4 radioligand binding, percentage inhibition ([11]; [125I]-NDP-αMSH): − (“−” indicates less than 50% inhibition at 10 μM)
